Source: ChEMBL document CHEMBL3784916, “Synthesis and anticancer activity of novel fluorinated asiatic acid derivatives” (Eur J Med Chem, 2016)
Active and inactive are the calls of the source. The rule behind the calls is not given here.

Assays:
HT-29 = experiment: Cytotoxicity against human HT-29 cells after 72 hrs by MTT assay; type: functional, cell-based; settings: HT-29, 72 h
HeLa [1] = experiment: Cytotoxicity against human HeLa cells after 72 hrs by MTT assay; type: functional, cell-based
Jurkat = experiment: Cytotoxicity against human Jurkat cells after 72 hrs by XTT assay; type: functional, cell-based
[2] = (§1) Cytotoxicity against human PC3 cells after 72 hrs by MTT assay; type: functional, cell-based; settings: PC-3, 72 h
PC-3 = experiment: as §1; type: functional, cell-based
MCF7 = experiment: Cytotoxicity against human MCF7 cells after 72 hrs by MTT assay; type: functional, cell-based
HeLa [3] = experiment: Downregulation of cyclin D3 level in human HeLa cells after 48 hrs by Western blot method; type: functional, cell-based
[4] = (§2) Cytotoxicity against human MIAPaCa2 cells after 72 hrs by MTT assay; type: functional, cell-based; settings: MIA PaCa-2, 72 h
MIA PaCa-2 = experiment: as §2; type: functional, cell-based
A-375 = experiment: Cytotoxicity against human A375 cells after 72 hrs by MTT assay; type: functional, cell-based
BJ = experiment: Cytotoxicity against human BJ cells after 72 hrs by MTT assay; type: cell-based; settings: Homo sapiens, BJ
HeLa [5] = experiment: Potency index, ratio of cisplatin IC50 to compound IC50 for human HeLa cells; type: functional
HeLa [6] = experiment: Induction of cell cycle arrest in human HeLa cells assessed as accumulation at G0/G1 phase at 1.34 uM after 24 hrs by propidium iodide staining-based flow cytometry (reference value: 51.41%); type: functional
HeLa [7] = experiment: Induction of cell cycle arrest in human HeLa cells assessed as accumulation at G0/G1 phase at 2.68 uM after 24 hrs by propidium iodide staining-based flow cytometry (reference value: 51.41%); type: functional
HeLa [8] = experiment: Induction of cell cycle arrest in human HeLa cells assessed as accumulation at S phase at 1.34 uM after 24 hrs by propidium iodide staining-based flow cytometry (reference value: 35.72%); type: functional
HeLa [9] = experiment: Induction of cell cycle arrest in human HeLa cells assessed as accumulation at S phase at 2.68 uM after 24 hrs by propidium iodide staining-based flow cytometry (reference value: 35.72%); type: functional
HeLa [10] = experiment: Induction of cell cycle arrest in human HeLa cells assessed as accumulation at G0/G1 phase at 1.34 uM after 48 hrs by propidium iodide staining-based flow cytometry (reference value: 54.05%); type: functional
HeLa [11] = experiment: Induction of cell cycle arrest in human HeLa cells assessed as accumulation at subG0/G1 phase at 2.68 uM after 48 hrs by propidium iodide staining-based flow cytometry; type: functional
HeLa [12] = experiment: Induction of apoptosis in human HeLa cells assessed as dead cells at 0.67 uM after 48 hrs by annexin V-FITC/propidium iodide staining-based flow cytometry ( Rvb = 0.067%); type: functional
HeLa [13] = experiment: Induction of apoptosis in human HeLa cells assessed as late apoptotic cells at 0.67 uM after 48 hrs by annexin V-FITC/propidium iodide staining-based flow cytometry ( Rvb = 1.28%); type: functional
HeLa [14] = experiment: Induction of apoptosis in human HeLa cells assessed as viable cells at 0.67 uM after 48 hrs by annexin V-FITC/propidium iodide staining-based flow cytometry ( Rvb = 95.4%); type: functional; settings: read-out: Activity
HeLa [15] = experiment: Induction of apoptosis in human HeLa cells assessed as early apoptotic cells at 0.67 uM after 48 hrs by annexin V-FITC/propidium iodide staining-based flow cytometry ( Rvb = 3.24%); type: functional
HeLa [16] = experiment: Induction of apoptosis in human HeLa cells assessed as dead cells at 1.34 uM after 48 hrs by annexin V-FITC/propidium iodide staining-based flow cytometry ( Rvb = 0.067%); type: functional
HeLa [17] = experiment: Induction of apoptosis in human HeLa cells assessed as late apoptotic cells at 1.34 uM after 48 hrs by annexin V-FITC/propidium iodide staining-based flow cytometry ( Rvb = 1.28%); type: functional
HeLa [18] = experiment: Induction of apoptosis in human HeLa cells assessed as viable cells at 1.34 uM after 48 hrs by annexin V-FITC/propidium iodide staining-based flow cytometry ( Rvb = 95.4%); type: functional; settings: read-out: Activity
HeLa [19] = experiment: Induction of apoptosis in human HeLa cells assessed as early apoptotic cells at 1.34 uM after 48 hrs by annexin V-FITC/propidium iodide staining-based flow cytometry ( Rvb = 3.24%); type: functional
HeLa [20] = experiment: Induction of apoptosis in human HeLa cells assessed as dead cells at 2.68 uM after 48 hrs by annexin V-FITC/propidium iodide staining-based flow cytometry ( Rvb = 0.067%); type: functional
HeLa [21] = experiment: Induction of apoptosis in human HeLa cells assessed as late apoptotic cells at 2.68 uM after 48 hrs by annexin V-FITC/propidium iodide staining-based flow cytometry ( Rvb = 1.28%); type: functional
HeLa [22] = experiment: Induction of apoptosis in human HeLa cells assessed as viable cells at 2.68 uM after 48 hrs by annexin V-FITC/propidium iodide staining-based flow cytometry ( Rvb = 95.4%); type: functional; settings: read-out: Activity
HeLa [23] = experiment: Induction of apoptosis in human HeLa cells assessed as early apoptotic cells at 2.68 uM after 48 hrs by annexin V-FITC/propidium iodide staining-based flow cytometry ( Rvb = 3.24%); type: functional
HeLa [24] = experiment: Induction of apoptosis in human HeLa cells assessed as cell shrinkage at 0.67 to 1.34 uM after 48 hrs by Hoechst 33258 staining-based fluorescence microscopy; type: functional
HeLa [25] = experiment: Induction of apoptosis in human HeLa cells assessed as chromatin condensation at 0.67 to 1.34 uM after 48 hrs by Hoechst 33258 staining-based fluorescence microscopy; type: functional, cell-based
HeLa [26] = experiment: Induction of apoptosis in human HeLa cells assessed as reduction in adherent cells at 0.67 to 1.34 uM after 48 hrs by Hoechst 33258 staining-based fluorescence microscopy; type: functional, cell-based
HeLa [27] = experiment: Induction of apoptosis in human HeLa cells assessed as rupture of cell membrane at 2.68 uM after 48 hrs by Hoechst 33258 staining-based fluorescence microscopy; type: functional
HeLa [28] = experiment: Induction of apoptosis in human HeLa cells assessed as nuclear fragmentation at 2.68 uM after 48 hrs by Hoechst 33258 staining-based fluorescence microscopy; type: functional, cell-based
HeLa [29] = experiment: Upregulation of p21 cip1/waf1 level in human HeLa cells at 1.34 to 2.68 uM after 48 hrs by Western blot method; type: functional, cell-based
HeLa [30] = experiment: Upregulation of p27 kip1 level in human HeLa cells at 1.34 to 2.68 uM after 48 hrs by Western blot method; type: functional, cell-based
HeLa [31] = experiment: Downregulation of cyclin E level in human HeLa cells at 0.67 to 2.68 uM after 48 hrs by Western blot method; type: functional, cell-based
HeLa [32] = experiment: Induction of apoptosis in human HeLa cells assessed as increase in cleaved caspase-3 level at 2.68 uM after 48 hrs by Western blot method; type: functional, cell-based
HeLa [33] = experiment: Induction of apoptosis in human HeLa cells assessed as increase in cleaved caspase-8 level at 2.68 uM after 48 hrs by Western blot method; type: functional, cell-based
HeLa [34] = experiment: Induction of apoptosis in human HeLa cells assessed as increase in cleaved PARP level at 2.68 uM after 48 hrs by Western blot method; type: functional, cell-based
HeLa [35] = experiment: Induction of apoptosis in human HeLa cells assessed as increase in t-Bid level at 2.68 uM after 48 hrs by Western blot method; type: functional, cell-based
HeLa [36] = experiment: Induction of apoptosis in human HeLa cells assessed as upregulation of Bax level after 48 hrs by Western blot method; type: functional, cell-based
HeLa [37] = experiment: Induction of apoptosis in human HeLa cells assessed as downregulation of Bcl2 level after 48 hrs by Western blot method; type: functional, cell-based
HeLa [38] = experiment: Induction of apoptosis in human HeLa cells assessed as increase in Bax to Bcl2 ratio at 0.67 to 2.68 uM after 48 hrs by Western blot method; type: functional, cell-based
HeLa [39] = experiment: Potency index, ratio of asiatic acid IC50 to compound IC50 for human HeLa cells; type: functional

## C[C@H]1[C@H](C)CC[C@@]23CC[C@]4(C)[C@](OC2=O)([C@H](F)C[C@@H]2[C@@]5(C)C(C=O)=C[C@@](C)(COC(=O)/C=C/c6ccccc6)[C@@H]5CC[C@]24C)[C@H]13
HT-29
  IC50: 710 nM
HeLa [1]
  IC50: 670 nM
Jurkat
  Activity: Dose-dependent effect
  IC50: 680 nM
[2]
  IC50: 740 nM
PC-3
  Activity: Dose-dependent effect
MCF7
  Activity: Dose-dependent effect
MCF7; MCF7, 72 h
  IC50: 840 nM
HeLa [3]
  Activity: Dose-dependent effect
[4]
  IC50: 1130 nM
MIA PaCa-2
  Activity: Dose-dependent effect
A-375
  Activity: Dose-dependent effect
A-375; A-375, 72 h
  IC50: 720 nM
BJ
  IC50: 1940 nM
HeLa [5]
  Ratio IC50: 3.5
HeLa [6]
  Activity: 67.26%
HeLa [7]
  Activity: 72.72%
HeLa [8]
  Activity: 22.55%
HeLa [9]
  Activity: 11.05%
HeLa [10]
  Activity: 76.03%
HeLa [11]
  Activity: 11.39%
HeLa [12]
  Activity: 0.193%
HeLa [13]
  Activity: 1.23%
HeLa [14]
  viability at 0.67 µM: 94.7%
HeLa [15]
  Activity: 3.65%
HeLa [16]
  Activity: 0.172%
HeLa [17]
  Activity: 2.6%
HeLa [18]
  viability at 1.34 µM: 92%
HeLa [19]
  Activity: 5.25%
HeLa [20]
  Activity: 2.86%
HeLa [21]
  Activity: 22.6%
HeLa [22]
  viability at 2.68 µM: 62.4%
HeLa [23]
  Activity: 12.1%
HeLa [24]
  Activity: Active
HeLa [25]
  Activity: Active
HeLa [26]
  Activity: Active
HeLa [27]
  Activity: Active
HeLa [28]
  Activity: Active
HeLa [29]
  Activity: Active
HeLa [30]
  Activity: Active
HeLa [31]
  Activity: Active
HeLa [32]
  Activity: Active
HeLa [33]
  Activity: Active
HeLa [34]
  Activity: Active
HeLa [35]
  Activity: Active
HeLa [36]
  Activity: Dose-dependent effect
HeLa [37]
  Activity: Dose-dependent effect
HeLa [38]
  Activity: Active
HeLa [39]
  Ratio IC50: 79
